One data set relates to growth hormone. Briefly: Growth hormone secretagogue assay described by Smith, et al., Science, 260, 1640-1643 (1993). The format is cell-based. As to conditions: assay of Smith et al., Science 1993. The source says:
Such a result is indicative of the activity of the formulation of the present invention as a growth hormone secretagogue.

Data set [1] can be described thus: Stability of the compound in standard pharmaceutical formulations. The format is physicochemical.
Data set [2] is described as follows: Flow properties of bulk drug. As to conditions: as a bulk drug. It is filed as physicochemical.
The next data set in a line: physchem. The format is physicochemical. As to conditions: solid state, initial compound present. As for the experimental part:
As a mimic of the tablet formulation process, a concentrated solution of N-[1(R)-[(1,2-dihydro-1-methanesulfonylspiro[3H-indole-3,4'-piperdin]-1'-yl)carbonyl]-2-(phenylmethyloxy)ethyl]-2-amino-2-methylpropanamide methanesulfonate (118 mg) in 120 μL 25% aqueous ethanol (980 mg/ml) was evaporated at 40° C. to give a solid. The lack of crystallinity was confirmed by X-ray analysis.
After 12 weeks at 40° C., 100% of the initial compound was present; after 12 weeks at 60° C., 99.7% of the initial compound was present; after 12 weeks at 80° C., 97.8% of the initial compound was present.

Data set [3] can be described thus: Hygroscopicity of wet crystals. It is filed as physicochemical. As to conditions: wet crystals during filtration. The method, then:
The volume of the solution of 15 from the previous step was adjusted to 60 L with ethyl acetate and EtOH (4.8 L) was added. The MsOH (316 mL) was added in 3 L of EtOAc at 45° C. To the deep red homogeneous solution was added 496 g of the title compound Form I seed (10% seed based on the weight of the free amine was employed). The temperature rose to ca. 48° C. and the reaction was aged at 52° C. for 1.5 hours. Analysis indicated complete conversion to the title compound (Form I). (At less than 10% seed longer age (>3 hours) was required). The slurry was allowed to cool to 20° C. overnight and was filtered in a centrifuge under N2. The cake was washed with 20 L of 8% EtOH in EtOAc. […] The batch was dried at 35° C. under vacuum to afford 2.7Kg (56% overall yield) of the title compound (Form I) (99.9 A % purity; <0.1% enantiomer).

This note sets out measurements from patent US6123964A, “Wet granulation formulation of a growth hormone secretagogue” (priority 1998, dated 2000).

Structures can show the parent of a compound that is named as a salt.

Take `CC(C)(N)C(=O)N[C@H](COCc1ccccc1)C(=O)N1CCC2(CC1)CN(S(C)(=O)=O)c1ccccc12` [active ingredient, N-[1(R)-[(1,2-dihydro-1-methane-sulfonyl-spiro[3H-indole-3,4'-piperdin]-1'-yl)carbonyl)-2-(phenyl-methyl-oxy)ethyl]-2-amino-2-methyl-propanamide]: the “activity as a growth hormone secretagogue” value in the data set with growth hormone was “had activity as a growth hormone secretagogue”. Moreover, the “stability in standard pharmaceutical formulations” value in data set [1] is “relatively unstable”. Further, the flow properties result in data set [2] is reported as “poor flow properties”.

Broadly, the share remaining is the share of the starting amount still present when the sample was taken. On to `CC(C)(N)C(=O)N[C@H](COCc1ccccc1)C(=O)N1CCC2(CC1)CN(S(C)(=O)=O)c1ccccc12` [amorphous form, N-[1(R)-[(1,2-dihydro-1-methanesulfonylspiro[3H-indole-3,4'-piperdin]-1'-yl)carbonyl]-2-(phenylmethyloxy)ethyl]-2-amino-2-methylpropanamide methanesulfonate], for which, in “physchem”, the fraction remaining at 2016 h worked out at 100%.

For the molecule `CC(C)(N)C(=O)N[C@H](COCc1ccccc1)C(=O)N1CCC2(CC1)CN(S(C)(=O)=O)c1ccccc12` [Compound 16, N-[1(R)-[(1,2-Dihydro-1-methanesulfonylspiro[3H-indole-3,4'-piperdin]-1'-yl)carbonyl]-2-(phenylmethyloxy)ethyl]-2-amino-2-methylpropanamide mesylate], the hygroscopicity entry in data set [3] is “very hygroscopic”.
